Assay in all cases: TLC product analysis
What all share (assay type): biochemical
What all share (details): 60 °C, MOPS buffer, 10 mM CaCl2

In test [1] the target is T1, Cel5-26H (Acetivibrio thermocellus, UniProt P16218).
T1 construct: gene celH; signal peptide removed, GH5 and GH26 modules, dockerin kept, His-tag, E. coli BL21
T1 sequence (P16218 45-900): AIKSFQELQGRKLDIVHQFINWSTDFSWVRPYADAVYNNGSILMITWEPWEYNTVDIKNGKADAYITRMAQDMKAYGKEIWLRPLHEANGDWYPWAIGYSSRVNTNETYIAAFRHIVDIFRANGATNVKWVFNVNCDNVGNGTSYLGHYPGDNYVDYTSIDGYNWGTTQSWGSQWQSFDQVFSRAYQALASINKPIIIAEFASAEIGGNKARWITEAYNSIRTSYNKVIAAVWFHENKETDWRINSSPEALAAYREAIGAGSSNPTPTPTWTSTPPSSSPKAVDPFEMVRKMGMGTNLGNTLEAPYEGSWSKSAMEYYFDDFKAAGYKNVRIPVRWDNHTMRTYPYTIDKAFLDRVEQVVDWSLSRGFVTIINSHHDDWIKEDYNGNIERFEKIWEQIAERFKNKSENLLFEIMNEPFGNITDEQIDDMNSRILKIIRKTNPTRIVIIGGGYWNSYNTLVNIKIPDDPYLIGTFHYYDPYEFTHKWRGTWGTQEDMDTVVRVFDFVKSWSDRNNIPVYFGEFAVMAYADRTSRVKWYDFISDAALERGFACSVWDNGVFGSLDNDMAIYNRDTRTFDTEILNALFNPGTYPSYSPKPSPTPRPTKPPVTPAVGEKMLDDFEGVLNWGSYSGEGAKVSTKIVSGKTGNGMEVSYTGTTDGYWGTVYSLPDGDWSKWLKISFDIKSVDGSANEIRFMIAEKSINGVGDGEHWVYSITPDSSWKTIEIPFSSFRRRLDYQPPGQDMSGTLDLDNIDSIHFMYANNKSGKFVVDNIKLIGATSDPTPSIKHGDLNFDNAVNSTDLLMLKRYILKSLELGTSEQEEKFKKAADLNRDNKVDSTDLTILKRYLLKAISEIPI

For test [2], the target named is T2, Cel9-44J (Acetivibrio thermocellus, UniProt A3DD30).
T2 construct: gene Cthe_0624; signal peptide removed, GH9 and GH44 modules, dockerin kept, His-tag, codon-optimised synthetic gene, E. coli BL21

For test [3], the target named is T3, Cel9D (Acetivibrio thermocellus, UniProt A3DDN1).
T3 construct: gene celD; signal peptide removed, Ig-like module and dockerin kept, His-tag, E. coli BL21
T3 sequence (A3DDN1 42-649): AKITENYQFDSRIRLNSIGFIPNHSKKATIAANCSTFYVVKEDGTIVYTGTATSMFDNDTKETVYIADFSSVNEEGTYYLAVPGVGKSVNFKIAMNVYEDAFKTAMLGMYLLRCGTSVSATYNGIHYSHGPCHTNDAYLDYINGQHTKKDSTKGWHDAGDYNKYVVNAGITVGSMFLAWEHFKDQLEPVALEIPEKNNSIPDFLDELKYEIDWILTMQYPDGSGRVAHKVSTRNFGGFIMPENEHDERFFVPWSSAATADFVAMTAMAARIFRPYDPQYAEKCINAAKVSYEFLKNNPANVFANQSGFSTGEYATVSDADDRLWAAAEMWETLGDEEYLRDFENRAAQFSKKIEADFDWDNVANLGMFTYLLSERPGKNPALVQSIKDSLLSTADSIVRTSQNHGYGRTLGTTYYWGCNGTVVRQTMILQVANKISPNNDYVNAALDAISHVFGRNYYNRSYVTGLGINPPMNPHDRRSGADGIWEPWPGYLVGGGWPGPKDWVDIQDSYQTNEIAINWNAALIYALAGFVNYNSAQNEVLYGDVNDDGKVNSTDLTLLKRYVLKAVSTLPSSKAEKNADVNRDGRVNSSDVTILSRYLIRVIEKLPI

Test [4] concerns the target T4, Cel9K (Acetivibrio thermocellus, UniProt A3DCH1).
T4 construct: gene celK; signal peptide removed, dockerin kept, His-tag, codon-optimised synthetic gene, E. coli BL21
T4 sequence (A3DCH1 28-895): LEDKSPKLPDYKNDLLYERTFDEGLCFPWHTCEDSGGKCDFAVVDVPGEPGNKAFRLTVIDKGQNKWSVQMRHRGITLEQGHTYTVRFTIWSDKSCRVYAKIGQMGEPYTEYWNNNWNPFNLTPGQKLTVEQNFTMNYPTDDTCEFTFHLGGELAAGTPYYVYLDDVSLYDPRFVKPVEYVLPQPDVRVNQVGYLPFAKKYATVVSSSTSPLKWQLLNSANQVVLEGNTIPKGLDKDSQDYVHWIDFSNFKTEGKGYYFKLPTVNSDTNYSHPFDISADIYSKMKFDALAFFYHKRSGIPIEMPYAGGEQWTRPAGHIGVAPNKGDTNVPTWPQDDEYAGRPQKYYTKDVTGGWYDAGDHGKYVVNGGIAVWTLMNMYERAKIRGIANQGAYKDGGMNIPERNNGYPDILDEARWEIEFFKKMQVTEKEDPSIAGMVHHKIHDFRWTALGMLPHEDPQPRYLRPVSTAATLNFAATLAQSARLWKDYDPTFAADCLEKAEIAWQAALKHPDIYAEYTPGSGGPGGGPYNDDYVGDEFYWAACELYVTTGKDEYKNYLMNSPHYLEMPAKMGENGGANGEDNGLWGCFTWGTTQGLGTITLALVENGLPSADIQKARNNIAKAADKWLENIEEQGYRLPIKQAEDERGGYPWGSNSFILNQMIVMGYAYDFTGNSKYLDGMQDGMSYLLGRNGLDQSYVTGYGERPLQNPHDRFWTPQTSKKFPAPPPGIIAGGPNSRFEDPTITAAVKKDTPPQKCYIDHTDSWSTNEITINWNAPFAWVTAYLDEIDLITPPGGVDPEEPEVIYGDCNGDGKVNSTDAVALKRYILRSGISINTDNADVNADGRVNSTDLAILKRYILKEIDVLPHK

Test [5] addresses T5, Cel9T (Acetivibrio thermocellus, UniProt A3DJ82).
T5 construct: gene Cthe_2812; signal peptide removed, dockerin kept, His-tag, E. coli BL21
T5 sequence (A3DJ82 36-611): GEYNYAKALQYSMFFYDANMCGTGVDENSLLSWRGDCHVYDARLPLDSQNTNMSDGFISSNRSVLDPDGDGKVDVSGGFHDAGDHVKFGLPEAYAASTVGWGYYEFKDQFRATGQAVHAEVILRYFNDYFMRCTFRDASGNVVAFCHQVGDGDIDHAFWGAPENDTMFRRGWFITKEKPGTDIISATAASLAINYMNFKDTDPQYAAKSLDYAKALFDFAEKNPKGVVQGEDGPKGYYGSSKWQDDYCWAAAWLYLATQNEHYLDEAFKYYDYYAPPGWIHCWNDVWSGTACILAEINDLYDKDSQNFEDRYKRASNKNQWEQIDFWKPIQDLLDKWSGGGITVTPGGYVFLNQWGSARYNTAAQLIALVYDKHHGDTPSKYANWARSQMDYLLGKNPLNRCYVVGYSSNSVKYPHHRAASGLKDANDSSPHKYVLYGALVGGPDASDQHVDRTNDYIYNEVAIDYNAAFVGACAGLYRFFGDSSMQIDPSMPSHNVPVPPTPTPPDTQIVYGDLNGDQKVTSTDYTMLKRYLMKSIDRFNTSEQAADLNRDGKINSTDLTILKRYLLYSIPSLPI

Test [6] addresses T6, Cbh9A (Acetivibrio thermocellus, UniProt A3DCH2).
T6 construct: gene Cthe_0413; signal peptide removed, dockerin kept, His-tag, E. coli BL21
T6 sequence (A3DCH2 28-1224): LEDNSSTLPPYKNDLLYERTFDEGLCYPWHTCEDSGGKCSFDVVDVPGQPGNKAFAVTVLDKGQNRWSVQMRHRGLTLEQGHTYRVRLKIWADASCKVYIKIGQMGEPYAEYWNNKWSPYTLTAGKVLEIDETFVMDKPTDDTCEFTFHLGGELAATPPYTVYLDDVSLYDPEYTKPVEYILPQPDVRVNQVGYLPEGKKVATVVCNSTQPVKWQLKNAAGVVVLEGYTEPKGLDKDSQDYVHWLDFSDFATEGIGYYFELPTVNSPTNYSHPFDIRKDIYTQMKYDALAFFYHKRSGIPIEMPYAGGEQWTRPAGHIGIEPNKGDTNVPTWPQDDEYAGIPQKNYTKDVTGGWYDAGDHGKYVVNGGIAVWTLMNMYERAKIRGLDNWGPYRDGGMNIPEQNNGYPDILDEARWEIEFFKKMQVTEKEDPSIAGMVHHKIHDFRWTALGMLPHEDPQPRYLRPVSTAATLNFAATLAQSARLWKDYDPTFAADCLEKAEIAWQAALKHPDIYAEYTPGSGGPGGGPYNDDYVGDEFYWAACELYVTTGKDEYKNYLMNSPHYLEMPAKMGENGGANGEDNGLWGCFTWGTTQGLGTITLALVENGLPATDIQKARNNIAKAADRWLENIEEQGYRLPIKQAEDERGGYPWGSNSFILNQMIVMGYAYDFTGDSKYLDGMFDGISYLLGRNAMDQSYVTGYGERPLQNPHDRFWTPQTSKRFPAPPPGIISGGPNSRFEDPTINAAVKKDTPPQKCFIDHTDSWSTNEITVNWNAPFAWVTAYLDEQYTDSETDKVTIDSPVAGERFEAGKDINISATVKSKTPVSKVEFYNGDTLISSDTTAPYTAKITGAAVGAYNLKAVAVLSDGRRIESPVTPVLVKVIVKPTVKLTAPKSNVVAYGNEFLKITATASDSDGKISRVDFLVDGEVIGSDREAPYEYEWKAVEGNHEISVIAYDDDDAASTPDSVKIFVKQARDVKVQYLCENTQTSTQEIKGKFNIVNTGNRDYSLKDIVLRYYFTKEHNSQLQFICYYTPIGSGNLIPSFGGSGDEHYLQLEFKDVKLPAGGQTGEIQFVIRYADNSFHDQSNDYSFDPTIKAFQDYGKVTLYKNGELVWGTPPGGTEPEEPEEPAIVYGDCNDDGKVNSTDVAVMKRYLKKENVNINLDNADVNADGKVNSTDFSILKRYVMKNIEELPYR

Consider one molecule from PMC5651568, “Comparative characterization of all cellulosomal cellulases from Clostridium thermocellum reveals high diversity in endoglucanase product formation essential for complex activity” (Biotechnology for Biofuels, 2017).

Each structure is given as a SMILES string.

T2 sequence (A3DD30 28-1601): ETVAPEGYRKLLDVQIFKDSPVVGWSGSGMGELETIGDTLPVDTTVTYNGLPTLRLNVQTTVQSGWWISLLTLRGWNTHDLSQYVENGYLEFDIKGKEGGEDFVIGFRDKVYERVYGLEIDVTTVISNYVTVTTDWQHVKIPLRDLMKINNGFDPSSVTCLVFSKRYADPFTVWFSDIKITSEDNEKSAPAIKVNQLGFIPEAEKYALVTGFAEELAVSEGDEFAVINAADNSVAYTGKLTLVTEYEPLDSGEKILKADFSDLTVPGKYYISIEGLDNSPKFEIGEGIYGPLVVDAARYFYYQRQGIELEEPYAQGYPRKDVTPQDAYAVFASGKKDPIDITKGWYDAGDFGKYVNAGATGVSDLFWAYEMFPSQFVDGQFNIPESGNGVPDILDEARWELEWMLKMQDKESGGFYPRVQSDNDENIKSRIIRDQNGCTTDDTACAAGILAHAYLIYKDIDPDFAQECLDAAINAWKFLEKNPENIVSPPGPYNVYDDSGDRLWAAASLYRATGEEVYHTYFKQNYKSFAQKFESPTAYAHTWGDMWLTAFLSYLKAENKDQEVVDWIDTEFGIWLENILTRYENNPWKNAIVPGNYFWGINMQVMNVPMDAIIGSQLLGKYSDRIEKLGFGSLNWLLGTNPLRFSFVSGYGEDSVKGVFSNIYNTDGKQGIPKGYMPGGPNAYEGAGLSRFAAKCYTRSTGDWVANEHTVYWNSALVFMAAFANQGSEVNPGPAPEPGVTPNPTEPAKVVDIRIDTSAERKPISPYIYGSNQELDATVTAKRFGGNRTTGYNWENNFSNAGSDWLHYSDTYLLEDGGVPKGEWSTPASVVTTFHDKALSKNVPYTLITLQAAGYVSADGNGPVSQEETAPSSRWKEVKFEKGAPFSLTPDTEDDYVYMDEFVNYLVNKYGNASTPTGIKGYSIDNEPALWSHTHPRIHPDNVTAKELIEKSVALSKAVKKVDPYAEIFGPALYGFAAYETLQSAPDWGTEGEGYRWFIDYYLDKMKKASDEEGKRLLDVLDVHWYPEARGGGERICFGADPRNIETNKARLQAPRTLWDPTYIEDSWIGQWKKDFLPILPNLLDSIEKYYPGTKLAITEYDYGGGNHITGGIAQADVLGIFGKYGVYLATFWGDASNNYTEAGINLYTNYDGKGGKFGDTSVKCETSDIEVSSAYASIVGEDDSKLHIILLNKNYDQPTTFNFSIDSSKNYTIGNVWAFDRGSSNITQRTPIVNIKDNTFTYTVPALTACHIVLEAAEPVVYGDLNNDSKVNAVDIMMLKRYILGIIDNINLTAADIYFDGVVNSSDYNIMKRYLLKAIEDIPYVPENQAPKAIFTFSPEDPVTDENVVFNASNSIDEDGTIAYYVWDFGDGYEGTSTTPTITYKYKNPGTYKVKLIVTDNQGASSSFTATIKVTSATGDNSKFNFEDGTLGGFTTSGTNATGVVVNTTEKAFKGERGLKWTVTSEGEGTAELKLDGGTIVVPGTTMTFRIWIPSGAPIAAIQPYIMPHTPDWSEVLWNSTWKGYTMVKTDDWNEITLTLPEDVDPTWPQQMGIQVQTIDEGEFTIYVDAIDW

In the case of `OC[C@H]1O[C@@H](O[C@H]2[C@H](O)[C@@H](O)[C@H](O[C@H]3[C@H](O)[C@@H](O)[C@H](O[C@H]4[C@H](O)[C@@H](O)[C@H](O[C@H]5[C@H](O)[C@@H](O)[C@H](O[C@H]6[C@H](O)[C@@H](O)C(O)O[C@@H]6CO)O[C@@H]5CO)O[C@@H]4CO)O[C@@H]3CO)O[C@@H]2CO)[C@H](O)[C@@H](O)[C@@H]1O` (stereo partly drawn) [cellohexaose], the TLC product analysis result is “characterized by their indiscriminate scission of cello-oligosaccharides” in test [1]; “characterized by their indiscriminate scission of cello-oligosaccharides” in test [2]; “confirmed by the hydrolysis products from cello-oligosaccharides as substrate” in test [3]; “released specifically cellobiose as the only product over time (Cel48S, Cel9K, and Cbh9A)” in test [4]; “characterized by their indiscriminate scission of cello-oligosaccharides” in test [5]; “released specifically cellobiose as the only product over time (Cel48S, Cel9K, and Cbh9A)” in test [6].
